According to article PMC11720353, “Clove Essential Oil as a Source of Antitumoral Compounds Capable of Crossing the Blood–Brain Barrier: A Focus on the Effects of β-Caryophyllene and Eugenol in a Glioblastoma Cell Line” (International Journal of Molecular Sciences, 2024):

Experiments:
[1] = rat, in vivo, cited from earlier work
U87 cells [2] = assay: Cell death assay (Annexin V/PI, flow cytometry); format: cell-based, human; details: EU 200 µM, BCA 125 µM, alone or in combination, 24 h
Experimental: HMC3 and U87 cells were seeded in duplicate into 12-well plates (10 × 10^4 cells/well). After 24 h of incubation at 37 °C and 5% CO2, the medium was replaced, and the cells were treated either with EU (200 µM) or BCA (125 µM), alone and in combination (EU 200 µM + BCA 125 µM). Following the 24 h treatment, the cells were co-stained with AV-APC and PI according to the manufacturer’s protocol (Biolegend, San Diego, CA, USA). Briefly, the cells were resuspended in binding buffer (100 µL) and incubated with AV-APC solution (5 µL) and PI solution (2 µL) for 15 min at room temperature. Then, the cells were diluted in a binding buffer (400 µL). A six-parameter, four-color FACSCalibur flow cytometer (Becton Dickinson, San Jose, CA, USA) was used, and at least 10,000 events were collected by acquisition using CellQuest software (Becton Dickinson, San Jose, CA, USA). The results were analyzed with the Paint-a-Gate software and expressed in percentage (%).

U87 cells [3] = assay: Clonogenic cell survival assay; format: cell-based, human; details: EU 200 µM, BCA 125 µM, alone or in combination, 14 days
Experimental: An evaluation of the antiproliferative effect via clonogenic assay on the tumoral U87 cells was performed using an adapted protocol from the previously described procedure. Briefly, U87 cells (0.8 × 10^3 cells/well) were seeded into 6-well plates and incubated for 24 h. After the incubation, based on the results obtained from the cell viability assay and synergistic score, the cells were treated either with EO single compounds diluted in ethanol alone (EU 200 µM and BCA 125 µM) or in combination for 14 days with the media being changed every 2/3 days. The cells without treatment were considered the control condition. Following the incubation, the cells were washed with PBS, fixed with paraformaldehyde (PFA) and stained with 0.1% crystal violet solution. The number of colonies was counted by microscopy, and the surviving fraction (SF) was calculated as the mean colonies/number of cells seeded.

U87 cells [4] = assay: Metabolic activity (Alamar blue) assay and HSA synergy analysis; format: cell-based, human; details: EU 2.5, 25, 200 µM or BCA 1.25, 12.5, 125 µM alone, 24-72 h
Experimental: To evaluate the cytotoxic/antiproliferative potential of BCA and/or EU, the U87 and HMC3 cells were seeded, in triplicate, into 48-well culture plates (4 × 10^4 cells/well). After 24 h, the medium was replaced, and the cells were treated either with the vehicle (ethanol) or with different concentrations of EO single molecules, diluted in ethanol alone ([…]; BCA: 1.25 µM, µM, 125 µM) or in combination (EU 2 µM and BCA 1.25 µM; EU 20 µM and BCA 12.5 µM; and EU 200 µM and BCA 125 µM) in order to evaluate the possible synergistic effects. The final concentration of ethanol in the cell medium was kept lower than 0.1%. Non-treated cells were considered the control condition. Metabolic activity was evaluated using a modified Alamar blue® assay, as previously described. […] After 2 h of incubation at 5% CO2 and 37 °C, the absorbance was read at 570 and 600 nm in a BioTeck (BioTek Instruments, Inc., Winooski, VT, USA). The absorbance results were obtained using the Gen5 program. The metabolic activity was then calculated by the following equation: Metabolicactivity %=A570−A600 oftreated cells/A570−A600 ofcontrol cells×100 All data were analyzed using the software GraphPad Prism v.9.00 (GraphPad Software, San Diego, CA, USA). All in vitro experiments were performed in triplicate, and the acquired results were expressed as means ± SEM. […]

HMC3 cells [5] = assay: Cell cycle analysis (PI/RNase, flow cytometry); format: cell-based, human; details: EU 200 µM, BCA 125 µM, alone or in combination, 24 h
Experimental: (§1) Analysis of the effect of BCA and/or EU on the cell cycle was assessed with flow cytometry using propidium iodide (PI)/RNase solution, according to the manufacturer’s protocol (Immunostep, Salamanca, Spain), as previously described. HMC3 and U87 cells (30 × 10^4 cells/well) were seeded in triplicate into 6-well plates and incubated for 24 h at 37 °C and 5% CO2. Thereafter, the cells were treated either with EU (200 µM) or BCA (125 µM) alone or in combination (EU 200 µM + BCA 125 µM). After 24 h, the cells were detached and fixed in 70% ethanol for 60 min at 4 °C, washed twice with PBS, and then stained with 500 µL of PI/RNase solution. The results were acquired using CellQuest software and expressed as the calculated percentage of the cell population in each cell cycle phase (G0/G1, S and G2/M) according to the PI intensity.

U87 cells [6] = assay: Cell cycle analysis (PI/RNase, flow cytometry); format: cell-based, human; details: BCA 125 µM alone or with EU 200 µM, 24 h
Experimental: as §1

HMC3 cells [7] = assay: Quantitative real-time PCR of mRNA levels; format: cell-based, human; details: 24 h
Experimental: (§2) An analysis of the genes involved in angiogenesis, tumor progression and proliferation were performed. In particular, we analyzed the genes involved in the cell cycle and in three different apoptotic pathways: B-cell lymphoma-2 (BCL2), Bcl-2-like protein 1 (BCL2L1), Bcl-2 Associated X-protein (BAX), BCL2 Antagonist/Killer 1 (BAK-1) and Caspase 9 (CASP9) as the key genes of the intrinsic mitochondrial pathway; and Phosphatase and tensin homolog (PTEN), Tumor protein p53 (TP53), Murine double minute 2 (MDM2), Cyclin-dependent kinase 4 (CDK4) and Vascular endothelial growth factor A (VEGFA) mRNA levels were assessed by quantitative real-time PCR (qRT-PCR). HMC3 and U87 cells were seeded with a density of 1 × 10^6 cells per well and incubated for 24 h at 37 °C and 5% CO2. Thereafter, the cells were treated either with EU (200 μM) or BCA (125 μM) alone and in combination (EU 200 μM + BCA 125 μM). Total RNA was extracted using the TripleXtractor solution (GRISP, Lisbon, Portugal) according to the manufacturer's protocol. RNA was converted into cDNA through the […] Synthesis Supermix (GRISP, Lisbon, Portugal). Each optimized reaction was performed using […] SYBR Green Mastermix 2X with […], Lisbon, Portugal) and subjected to the amplification protocol described by the manufacturer, using a melting temperature of 60 °C. The relative gene expression was determined by the 2^-ΔΔCt method and normalized on Glyceraldehyde-3-Phosphate Dehydrogenase (GAPDH), which was the endogenous reference and relative to the untreated cells (control condition).

U87 cells [8] = assay: Quantitative real-time PCR of mRNA levels; format: cell-based, human; details: 24 h
Experimental: as §2

[9] = EU 200 µM, BCA 125 µM, alone or in combination

C=C1CC/C=C(\C)CC[C@@H]2[C@@H]1CC2(C)C [BCA, β-Caryophyllene]
oral acute LD50 ([1]; po): over 5000 mg/kg | No Observed Adverse Effect Level (NOAEL) dose [1]: 700 mg/kg | live (viable) cells, change with respect to control (U87 cells [2]): did not affect | decrease of clonal growth / colony formation with respect to control (U87 cells [3]): −63.8% | reduction in metabolic activity, single compounds (U87 cells [4]): No reduction | effect on cell cycle (HMC3 cells [5]): no effects | decrease in percentage of cells in the S phase (U87 cells [6]): −49.4% | increase in percentage of cells in the G0/G1 phase (U87 cells [6]): 21.1% | PTEN mRNA expression, change vs control (HMC3 cells [7]; EU 200 µM or BCA 125 µM): no effect | BAK1 mRNA expression, change vs control (HMC3 cells [7]; [9]): +59.8% | BCL2 mRNA expression, change vs control (HMC3 cells [7]; [9]): −56.2% | CDK4 mRNA levels, change vs control (HMC3 cells [7]; [9]): no effects | MDM2 mRNA expression, change vs control (HMC3 cells [7]; [9]): +34.2% | TP53 mRNA expression, change vs control (HMC3 cells [7]; [9]): +155.5% | VEGFA mRNA expression, change vs control (HMC3 cells [7]; [9]): −57% | PTEN mRNA expression, change vs control (U87 cells [8]; EU 200 µM or BCA 125 µM): +171.8% | BAK1 mRNA expression, change vs control (U87 cells [8]; [9]): +129.6% | BAX mRNA expression, change vs control (U87 cells [8]; [9]): +35.0% | BCL2L1 mRNA expression, change vs control (U87 cells [8]; [9]): −42.2% | BCL2 mRNA expression, change vs control (U87 cells [8]; [9]): −54.8% | CASP9 mRNA expression, change vs control (U87 cells [8]; [9]): +98.5% | MDM2 mRNA expression, change vs control (U87 cells [8]; [9]): −49.3% | TP53 mRNA expression, change vs control (U87 cells [8]; [9]): +506.4% | VEGFA mRNA expression, change vs control (U87 cells [8]; [9]): −56.5% | CDK4 mRNA levels, change vs control (U87 cells [8]; EU 200 µM, BCA 125 µM, alone or in combination, normalized to GAPDH): no effects
